Test results reported in ChEMBL document CHEMBL4715849, “Recent Progress in the Discovery of Antifungal Agents Targeting the Cell Wall” (J Med Chem, 2020).
≈ marks a conversion by molar mass, not a printed value.

How the values were obtained:
[1] = tested on: Candida albicans; assay: Antifungal activity against Candida albicans AMB-25 incubated for 48 hrs by serial two-fold dilution method; format: functional
[2] = tested on: Candida albicans; assay: Antifungal activity against Candida albicans ATCC 262 incubated for 24 hrs by turbidimetric method; format: functional
[3] = tested on: Candida albicans; assay: Antifungal activity against Candida albicans incubated for 24 hrs by turbidimetric method; format: functional
[4] = Inhibition of Candida albicans IFO1060 1,3-beta-D-glucan synthase
[5] = tested on: Candida albicans; assay: Antifungal activity against Candida albicans infected in mouse assessed as protection against fungus-induced lethal infection; format: functional; conditions: read-out: PD50
[6] = tested on: Aspergillus fumigatus; assay: Antifungal activity against Aspergillus fumigatus CF1083 infected in iv dosed mouse model of pulmonary aspergillosis administered once daily for 4 days and measured on day 14; format: functional; conditions: 336 h, time 14 day
[7] = Inhibition of fungi 1,3-beta-D-glucan synthase
[8] = tested on: Candida parapsilosis; assay: Antifungal activity against Candida parapsilosis K332 by agar incorporation method; format: functional; conditions: Lodderomyces parapsilosis
[9] = tested on: Candida albicans; assay: Antifungal activity against Candida albicans K341 by agar incorporation method; format: functional
[10] = tested on: Candida albicans; assay: Antifungal activity against Candida albicans K1082 by agar incorporation method; format: functional
[11] = tested on: Candida tropicalis; assay: Antifungal activity against Candida tropicalis K337 by agar incorporation method; format: functional
[12] = tested on: Candida albicans; assay: Antifungal activity against Candida albicans K1133 by agar incorporation method; format: functional
[13] = tested on: Candida parapsilosis; assay: Antifungal activity against Candida parapsilosis K1154 by agar incorporation method; format: functional; conditions: Lodderomyces parapsilosis
[14] = tested on: Candida tropicalis; assay: Antifungal activity against Candida tropicalis K1155 by agar incorporation method; format: functional
[15] = tested on: Candida albicans; assay: Antifungal activity against Candida albicans K335 by agar incorporation method; format: functional
[16] = tested on: Pichia kudriavzevii; assay: Antifungal activity against Candida krusei K1153 by agar incorporation method; format: functional
[17] = tested on: Meyerozyma guilliermondii; assay: Antifungal activity against Candida guilliermondii K334 by agar incorporation method; format: functional
[18] = tested on: Cyberlindnera jadinii; assay: Antifungal activity against Candida utilis K482 by agar incorporation method; format: functional; conditions: Williopsis jadinii

COC(=O)/C=C/C(=O)NC[C@H](N)C(=O)N[C@@H](CC(C)C)C(=O)O
MIC [1]: 0.4 µg/mL (≈ 1.21 µM)

CCC[C@H](NC(=O)[C@H](CNC(=O)/C=C/C(=O)OC)NC(=O)[C@@H](N)CCC)C(=O)O
MIC [2]: 0.05 µg/mL (≈ 0.121 µM) | MIC [3]: 0.025 µg/mL (≈ 0.0603 µM)

COC(=O)/C=C/C(=O)NC[C@H](NC(=O)[C@H](C)N)C(=O)N[C@@H](C)C(=O)O
MIC [2]: 0.025 µg/mL (≈ 0.0698 µM) | MIC [3]: 0.025 µg/mL (≈ 0.0698 µM)

CCC[C@H](NC(=O)[C@@H](N)CCCCN)C(=O)N[C@@H](CNC(=O)/C=C/C(=O)OC)C(=O)O
MIC [2]: 0.025 µg/mL (≈ 0.0564 µM) | MIC [3]: 0.025 µg/mL (≈ 0.0564 µM)

CCCCC(N)C(=O)N[C@@H](CNC(=O)/C=C/C(=O)OC)C(=O)O (stereo partly drawn)
MIC [1]: 0.4 µg/mL (≈ 1.21 µM)

CCCCCCCCCCCCC[C@H]1OC(=O)[C@H](CCCNC(=O)[C@@H](N)CCCN)NC(=O)[C@@H]([C@@H](C)O)NC(=O)CNC(=O)[C@H]([C@H](O)CC(N)=O)NC(=O)[C@H]2[C@@H](O)CCN2C(=O)[C@H]([C@@H](C)O)NC(=O)[C@@H]2C[C@@H](O)CN2C(=O)[C@H](C(C)C)NC(=O)[C@H](Cc2ccc(O)cc2)NC(=O)[C@@H](C)NC(=O)[C@H]([C@@H](C)O)NC1=O
IC50 [4]: 8000 pM

COC(=O)/C=C/C(=O)NC[C@H](N)C(=O)N[C@@H](CCSC)C(=O)O
MIC [1]: 0.4 µg/mL (≈ 1.15 µM)

COc1cc(O)c2c(c1)C(=O)c1c(cc3c(c1O)-c1c(cc(C)c(C(=O)NC(C)C(=O)O)c1O)[C@H](O[C@@H]1O[C@H](C)[C@H](O)[C@H](O[C@@H]4OC[C@@H](O)[C@H](O)[C@H]4O)[C@H]1O)[C@H]3O)C2=O (stereo partly drawn)
ED50 [5]: 71 mg/kg

CCCCCCCCCCCCC[C@H]1OC(=O)[C@H](CCCN(CCN)C(=O)[C@H](CCCN)N(CCN)CCN)NC(=O)[C@@H]([C@@H](C)O)NC(=O)CNC(=O)[C@H]([C@H](O)CC(N)=O)NC(=O)[C@H]2[C@@H](O)CCN2C(=O)[C@H]([C@@H](C)O)NC(=O)[C@@H]2C[C@@H](O)CN2C(=O)[C@H](C(C)C)NC(=O)[C@H](Cc2ccc(O)cc2)NC(=O)[C@@H](C)NC(=O)[C@H]([C@@H](C)O)NC1=O
ED50 [6]: 5.2 mg/kg | IC50 [7]: 200 pM

COC(=O)/C=C/C(=O)NC[C@H](N)C(=O)N[C@@H](CCSC)C(=O)N[C@@H](C)C(=O)O
MIC [2]: 0.025 µg/mL (≈ 0.0597 µM) | MIC [3]: 0.025 µg/mL (≈ 0.0597 µM)

COC(=O)/C=C/C(=O)NC[C@H](NC(=O)[C@H](N)Cc1ccc(O)cc1)C(=O)O
MIC [1]: 0.4 µg/mL (≈ 1.05 µM)

COC(=O)/C=C/C(=O)NC[C@H](NC(=O)[C@H](CCSC)NC(=O)[C@@H](N)CNC(=O)/C=C/C(=O)OC)C(=O)O
MIC [2]: 0.025 µg/mL (≈ 0.0458 µM) | MIC [3]: 0.025 µg/mL (≈ 0.0458 µM)

COC(=O)/C=C/C(=O)NC[C@H](N)C(=O)N[C@@H](Cc1ccccc1)C(=O)O
MIC [1]: 0.4 µg/mL (≈ 1.1 µM)

CCC(O)/C=C/C=C/C=C/C(=O)OC[C@H]1O[C@@H](O[C@H]2[C@H](OC(=O)/C=C/C=C/C[C@H](O)/C(C)=C/C=C/CC[C@@H](C)CC)[C@@H](O)[C@@]3(OCc4cc(O)cc(O)c43)O[C@@H]2CO)[C@H](O)[C@@H](O)[C@H]1O (stereo partly drawn)
MIC [8]: 0.1 µg/mL (≈ 0.111 µM) | MIC [9]: 0.1 µg/mL (≈ 0.111 µM) | MIC [10]: 0.1 µg/mL (≈ 0.111 µM) | MIC [11]: 0.1 µg/mL (≈ 0.111 µM) | MIC [12]: 0.1 µg/mL (≈ 0.111 µM) | MIC [13]: 0.1 µg/mL (≈ 0.111 µM) | MIC [14]: 0.1 µg/mL (≈ 0.111 µM) | MIC [15]: 0.1 µg/mL (≈ 0.111 µM) | MIC [16]: 0.1 µg/mL (≈ 0.111 µM) | MIC [17]: 0.1 µg/mL (≈ 0.111 µM) | MIC [18]: 0.1 µg/mL (≈ 0.111 µM)

COc1cc(O)c2c(c1)C(=O)c1c(cc3c(c1O)-c1c(cc(C)c(C(=O)N[C@H](CO)C(=O)O)c1O)[C@H](O[C@@H]1O[C@H](C)[C@H](O)[C@H](O[C@@H]4OC[C@@H](O)[C@H](O)[C@H]4O)[C@H]1O)[C@H]3O)C2=O
ED50 [5]: 33 mg/kg

CCC(N)C(=O)N[C@@H](CNC(=O)/C=C/C(=O)OC)C(=O)O (stereo partly drawn)
MIC [1]: 0.4 µg/mL (≈ 1.33 µM)

CCCCCCCCCCCCC[C@H]1OC(=O)[C@H](CCCN(CCCN)C(=O)[C@@H](CCCN)N(CCN)CCN)NC(=O)[C@@H]([C@@H](C)O)NC(=O)CNC(=O)[C@H]([C@H](O)CC(N)=O)NC(=O)[C@H]2[C@@H](O)CCN2C(=O)[C@H]([C@@H](C)O)NC(=O)[C@@H]2C[C@@H](O)CN2C(=O)[C@H](C(C)C)NC(=O)[C@H](Cc2ccc(O)cc2)NC(=O)[C@@H](C)NC(=O)[C@H]([C@@H](C)O)NC1=O
ED50 [6]: 5.2 mg/kg | IC50 [7]: 280 pM

COC(=O)/C=C/C(=O)NC[C@H](N)C(=O)N[C@@H](Cc1ccc(O)cc1)C(=O)O
MIC [1]: 0.4 µg/mL (≈ 1.05 µM)

CCCCCCCCCCCCC[C@H]1OC(=O)[C@H](CCCNC(=O)[C@@H](CCCN)N(CCN)CCN)NC(=O)[C@@H]([C@@H](C)O)NC(=O)CNC(=O)[C@H]([C@H](O)CC(N)=O)NC(=O)[C@H]2[C@@H](O)CCN2C(=O)[C@H]([C@@H](C)O)NC(=O)[C@@H]2C[C@@H](O)CN2C(=O)[C@H](C(C)C)NC(=O)[C@H](Cc2ccc(O)cc2)NC(=O)[C@@H](C)NC(=O)[C@H]([C@@H](C)O)NC1=O
ED50 [6]: 5.2 mg/kg | IC50 [7]: 900 pM

CCCCCCCCCCCCC[C@H]1OC(=O)[C@H](CCCNC(=O)[C@H](N)CCCN)NC(=O)[C@@H]([C@@H](C)O)NC(=O)CNC(=O)[C@H]([C@H](O)CC(N)=O)NC(=O)[C@H]2[C@@H](O)CCN2C(=O)[C@H]([C@@H](C)O)NC(=O)[C@@H]2C[C@@H](O)CN2C(=O)[C@H](C(C)C)NC(=O)[C@H](Cc2ccc(O)cc2)NC(=O)[C@@H](C)NC(=O)[C@H]([C@@H](C)O)NC1=O
IC50 [4]: 5000 pM
